# From US20210094955A1, “SALT AND CRYSTAL OF TRIAZOLOPYRAZINE DERIVATIVE” (priority 2017, published 2021)
# Legend:
# [1] = Solubility test, Test Method 1 (sample approx. 150 μg/mL, shaken 10 minutes at room temperature, filtrate quantified by HPLC); format: physicochemical; conditions: approx. 150 μg/mL added, in terms of free form
# Procedure: Test Method of Free Form, Hydrochloride, Hydrobromide, Sulfate, Methanesulfonate, and Benzenesulfonate […] In order to uniformly disperse the sample in the dissolving solution, the sample was irradiated with ultrasonic waves in a water tank for a short time, and then vigorously shaken at room temperature for 10 minutes using a shaker SA-31 manufactured by Yamato Scientific Co., Ltd. The solution after shaken was filtered with a filter, and a concentrations of the compound in filtrate was quantified by HPLC. The following was used as the dissolving solution. […] JP2 (Japanese Pharmacopoeia 2nd Fluid for disintegration test): manufactured by Nacalai Tesque Inc. JP2+TC: Add sodium taurocholate to Japanese Pharmacopoeia 2nd Fluid for disintegration test to obtain a concentration of 15 mM. FaSSIF (artificial intestinal fluid (fasted state)): […] FeSSIF (artificial intestinal fluid (fed state)): […] Measurement conditions of free form, hydrochloride, hydrobromide, sulfate, methanesulfonate, and benzenesulfonate) Equipment: LC-1260 manufactured by Agilent Technologies Mobile phase: A: 0.01 M aqueous solution of ammonium acetate, B: 0.01 M methanol solution of ammonium acetate Flow rate: 0.3 mL/min Column: Develosil Combi-RP-5 5 μm (2.0 mm×50 mm) Column temperature: 40° C. […] Ex indicates Example Number to be described later.
# [2] = Solubility test, Test Method 2 (sample approx. 300 μg/mL, shaken 10 minutes at room temperature, filtrate quantified by HPLC); format: physicochemical; conditions: approx. 300 μg/mL added, in terms of free form
# Procedure: JP1 (Japanese Pharmacopoeia 1st Fluid for disintegration test): manufactured by Nacalai Tesque Inc.
# JP2 (Japanese Pharmacopoeia 2nd Fluid for disintegration test): manufactured by Nacalai Tesque Inc.
# JP2+TC: Add sodium taurocholate to Japanese Pharmacopoeia 2nd Fluid for disintegration test to obtain a concentration of 15 mM.
# FaSSIF (artificial intestinal fluid (fasted state)): To 1 L of water, 3 mmol of sodium taurocholate, 0.75 mmol of lecithin, 3.9 g of potassium dihydrogen phosphate, and 7.7 g of potassium chloride are added, and a pH thereof is adjusted to approximately 6.5 using sodium hydroxide.
# FeSSIF (artificial intestinal fluid (fed state)): To 1 L of water, 15 mmol of sodium taurocholate, 3.75 mmol of lecithin, 8.65 g of acetic acid, and 15.2 g of potassium chloride are added, and a pH is adjusted to approximately 5.0 using sodium hydroxide.
# Test Method 2: Test Method for p-Toluenesulfonate and 1-Hydroxy-2-Naphthoate
# Into a 10 mL centrifuge tube, 1 to 1.3 mg of a sample was weighed, and each dissolving solution (see below) was added thereto to be approximately 300 μg/mL. In order to uniformly disperse the sample in the dissolving solution, the sample was irradiated with ultrasonic waves in a water tank for a short time, and then vigorously shaken at room temperature for 10 minutes using a shaker SA-31 manufactured by Yamato Scientific Co., Ltd. The solution after shaken was filtered with a filter, and a concentration of the compound in filtrate was quantified by HPLC. The same dissolving solution as in Test Method 1 was used.
# (Measurement condition 2 using HPLC: Measurement conditions of p-toluenesulfonate and 1-hydroxy-2-naphthoate)
# Equipment: LC-1260 manufactured by Agilent Technologies
# Mobile phase: A: 0.1% aqueous perchloric acid, B: methanol
# Column: YMC-Triart C18 S-3 μm (2.0 mm×50 mm)
# Column temperature: 40° C.
# Detection wavelength: 254 nm
# Ex indicates Example Number to be described later.
# [3] = pH 1.2, simulated gastric fluid, thermodynamic from solid, JP1 (Japanese Pharmacopoeia 1st Fluid for disintegration test), 10 minutes shaking, read-out: Solubility JP1
# [4] = pH 5, thermodynamic from solid, FeSSIF (artificial intestinal fluid, fed state), pH approx. 5.0, 10 minutes shaking, read-out: Solubility FeSSIF
# [5] = pH 6.5, thermodynamic from solid, FaSSIF (artificial intestinal fluid, fasted state), pH approx. 6.5, 10 minutes shaking, read-out: Solubility FaSSIF
# [6] = pH 6.8, aqueous buffer, thermodynamic from solid, JP2 (Japanese Pharmacopoeia 2nd Fluid for disintegration test), 10 minutes shaking, read-out: Solubility JP2
# [7] = pH 6.8, fassgf or other biorelevant, thermodynamic from solid, JP2 with 15 mM sodium taurocholate, 10 minutes shaking, read-out: Solubility JP2 + TC
SMILES,"solubility at 10 min [1, 3] [µg/mL]","solubility at 10 min [1, 4] [µg/mL]","solubility at 10 min [1, 5] [µg/mL]","solubility at 10 min [1, 6] [µg/mL]","solubility at 10 min [1, 7] [µg/mL]",further results
"Cc1nsc(-c2nnc3n2CCN(C(=O)c2ccc(F)cc2)[C@@H]3C)n1 [Compound A, (4-fluorophenyl)[(8R)-8-methyl-3-(3-methyl-1,2,4-thiadiazol-5-yl)-5,6-dihydro[1,2,4]triazolo[4,3-a]pyrazin-7(8H)-yl]methanone, reference compound]",66.6,31.9,36.5,65.4,82.9,–
"Cc1nsc(-c2nnc3n2CCN(C(=O)c2ccc(F)cc2)[C@@H]3C)n1.Cl [Example 1, (4-fluorophenyl)[(8R)-8-methyl-3-(3-methyl-1,2,4-thiadiazol-5-yl)-5,6-dihydro[1,2,4]triazolo[4,3-a]pyrazin-7(8H)-yl]methanone hydrochloride]",> 100,> 100,> 100,> 100,> 100,–
"Br.Cc1nsc(-c2nnc3n2CCN(C(=O)c2ccc(F)cc2)[C@@H]3C)n1 [Example 2, (4-fluorophenyl)[(8R)-8-methyl-3-(3-methyl-1,2,4-thiadiazol-5-yl)-5,6-dihydro[1,2,4]triazolo[4,3-a]pyrazin-7(8H)-yl]methanone hydrobromide]",> 100,> 100,> 100,> 100,> 100,–
"Cc1nsc(-c2nnc3n2CCN(C(=O)c2ccc(F)cc2)[C@@H]3C)n1.O=S(=O)(O)O [Example 3, (4-fluorophenyl)[(8R)-8-methyl-3-(3-methyl-1,2,4-thiadiazol-5-yl)-5,6-dihydro[1,2,4]triazolo[4,3-a]pyrazin-7(8H)-yl]methanone sulfate]",> 100,> 100,> 100,> 100,> 100,–
"Cc1ccc(S(=O)(=O)O)cc1.Cc1nsc(-c2nnc3n2CCN(C(=O)c2ccc(F)cc2)[C@@H]3C)n1 [Example 5, (4-fluorophenyl)[(8R)-8-methyl-3-(3-methyl-1,2,4-thiadiazol-5-yl)-5,6-dihydro[1,2,4]triazolo[4,3-a]pyrazin-7(8H)-yl]methanone p-toluenesulfonate]",–,–,–,–,–,"solubility at 10 min [2, 3]: > 100 µg/mL; solubility at 10 min [2, 4]: > 100 µg/mL; solubility at 10 min [2, 5]: > 100 µg/mL; solubility at 10 min ([2]; pH 6.8, fassgf or other biorelevant, thermodynamic from solid, JP2 (Japanese Pharmacopoeia 2nd Fluid for disintegration test), 10 minutes shaking, read-out: Solubility JP2): > 100 µg/mL; solubility at 10 min [2, 7]: > 100 µg/mL"
"CS(=O)(=O)O.Cc1nsc(-c2nnc3n2CCN(C(=O)c2ccc(F)cc2)[C@@H]3C)n1 [Example 6, (4-fluorophenyl)[(8R)-8-methyl-3-(3-methyl-1,2,4-thiadiazol-5-yl)-5,6-dihydro[1,2,4]triazolo[4,3-a]pyrazin-7(8H)-yl]methanone methanesulfonate]",> 100,> 100,> 100,> 100,> 100,–
"Cc1nsc(-c2nnc3n2CCN(C(=O)c2ccc(F)cc2)[C@@H]3C)n1.O=S(=O)(O)c1ccccc1 [Example 7, (4-fluorophenyl)[(8R)-8-methyl-3-(3-methyl-1,2,4-thiadiazol-5-yl)-5,6-dihydro[1,2,4]triazolo[4,3-a]pyrazin-7(8H)-yl]methanone benzenesulfonate]",> 100,> 100,> 100,> 100,> 100,–
"Cc1nsc(-c2nnc3n2CCN(C(=O)c2ccc(F)cc2)[C@@H]3C)n1.O=C(O)c1ccc2ccccc2c1O [Example 8, (4-fluorophenyl)[(8R)-8-methyl-3-(3-methyl-1,2,4-thiadiazol-5-yl)-5,6-dihydro[1,2,4]triazolo[4,3-a]pyrazin-7(8H)-yl]methanone 1-hydroxy-2-naphthoate]",–,–,–,–,–,"Solubility FaSSIF ([2]; FaSSIF (artificial intestinal fluid, fasted state), pH approx. 6.5, 10 minutes shaking): >100 µg/mL; Solubility FeSSIF ([2]; FeSSIF (artificial intestinal fluid, fed state), pH approx. 5.0, 10 minutes shaking): >100 µg/mL; Solubility JP1 ([2]; JP1 (Japanese Pharmacopoeia 1st Fluid for disintegration test), 10 minutes shaking): 58.9 µg/mL; Solubility JP2 ([2]; JP2 (Japanese Pharmacopoeia 2nd Fluid for disintegration test), 10 minutes shaking): >100 µg/mL; Solubility JP2 + TC ([2]; JP2 with 15 mM sodium taurocholate, 10 minutes shaking): >100 µg/mL"
